Source: paper PMC7127258 (European Journal of Medicinal Chemistry, 2013)

Experiments:
[1] = tested on: vesicular stomatitis virus (VSV); format: cell-based
[2] = tested on: interferon; details: rodents and cats; administered orally or intraperitoneally; cited from earlier work
[3] = tested on: renal papillae of rats; details: cited from earlier work

| Compound | EC50 vesicular stomatitis virus [1] | Interferon induction [2] | Toxicity upon chronic administration [3] |
| --- | --- | --- | --- |
| CCCCCc1nc(N)[nH]c(=O)c1Br [Compound 14c, 2-Amino-5-bromo-6-pentylpyrimidin-4(3H)-one] | anti-VSV activity was not observed in HEL cell cultures | – | – |
| Cc1nc(N)nc(O)c1Br [Compound 6, 2-amino-5-bromo-6-methyl-4(3H)-pyrimidinone] | – | reported to induce interferon | toxicity-limiting crystal deposition in the renal papillae of rats |
